pEC50: −log10 of the molar value.
Target: Cell division control protein 42 homolog (Homo sapiens, UniProt P60953)
Experiment: inhibition of fluorescent GTP binding to wildtype Cdc42 – biochemical, pyrazoline analogs, multiplex bead flow cytometry, Ki, SAR follow-up (AID 2019)
[1] = inactive by the depositor's call

Cell division control protein 42 homolog, sequence (P60953 whole entry): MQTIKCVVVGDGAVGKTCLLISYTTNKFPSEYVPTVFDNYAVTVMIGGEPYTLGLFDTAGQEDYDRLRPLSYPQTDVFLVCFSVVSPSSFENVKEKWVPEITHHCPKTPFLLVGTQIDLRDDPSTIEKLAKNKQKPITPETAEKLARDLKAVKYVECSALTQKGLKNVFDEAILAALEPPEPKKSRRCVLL

| Structure (SMILES) | pEC50 [1] | pEC50 |
| --- | --- | --- |
| O=[N+]([O-])c1cccc(C2C[C-](c3ccc(F)cc3)N=[N+]2c2ccccc2)c1 (stereo not drawn) [5-(4-fluorophenyl)-3-(3-nitrophenyl)-2-phenyl-3,4-dihydropyrazole] | 4.52 | – |
| Cc1ccc(-c2cc(C(F)(F)F)nn2-c2ccc(S(N)(=O)=O)cc2)cc1 [Celecoxib] | 4.52 | – |
| COc1ccc(C2CC(c3ccc(N(C)C)cc3)=NN2c2ccc(S(N)(=O)=O)cc2)cc1 (stereo not drawn) [KUC103422N] | 5.47 | – |
| COc1ccc(C2CC(C(C)(C)C)=NN2c2ccc(S(N)(=O)=O)cc2)cc1 (stereo not drawn) [KUC103450N] | 4.52 | – |
| COc1ccc(C2CC(c3ccccc3C(F)(F)F)=NN2c2ccc(S(N)(=O)=O)cc2)cc1 (stereo not drawn) [KUC103474N] | 4.52 | – |
| Cc1ccccc1N1N=C(c2ccccc2)CC1c1ccc(N(C)C)cc1 (stereo not drawn) [N,N-dimethyl-4-[2-(2-methylphenyl)-5-phenyl-3,4-dihydropyrazol-3-yl]aniline] | 4.52 | – |
| COc1ccc(C2CC(c3ccc(Br)cc3)=NN2c2ccccc2Cl)cc1 (stereo not drawn) [UNM-0000305832] | 4.52 | – |
| COc1ccc(C2=NN(c3ccccc3)C(c3ccc(Cl)cc3)C2)cc1 (stereo not drawn) [UNM-0000305833] | 4.52 | – |
| O=S(=O)(O)c1ccc(N2N=C(c3ccccc3)CC2c2ccccc2)cc1 (stereo not drawn) [UNM-0000305834] | – | 4.52 |
| Cc1cccc(N2N=C(c3ccccc3)CC2c2ccccc2)c1 (stereo not drawn) [UNM-0000305835] | 4.52 | – |
| O=[N+]([O-])c1ccc([N+]2=N[C-](c3ccccc3)CC2c2ccc(O)cc2)cc1 (stereo not drawn) [UNM-0000305838] | 4.52 | – |
| CN(C)c1ccc(C2CC(c3ccc(Br)cc3)=NN2c2ccccc2)cc1 (stereo not drawn) [UNM-0000305846] | 4.52 | – |
| CN(C)c1ccc(C2CC(c3ccc(Cl)cc3)=NN2c2ccccc2)cc1 (stereo not drawn) [UNM-0000305847] | 4.52 | – |
| COc1ccc(C2=NN(c3ccccc3)C(c3ccc(OC)c(OC)c3C(=O)O)C2)cc1 (stereo not drawn) [UNM-0000305848] | 4.52 | – |
| Cc1ccccc1[N+]1=N[C-](c2ccccc2)CC1c1cccc([N+](=O)[O-])c1 (stereo not drawn) [UNM-0000305854] | 4.52 | – |
| COc1ccccc1N1N=C(c2ccccc2)CC1c1ccccc1 (stereo not drawn) [UNM-0000305855] | 4.52 | – |
| O=[N+]([O-])c1cccc(C2C[C-](c3ccccc3)N=[N+]2c2ccccc2)c1 (stereo not drawn) [UNM-0000305857] | 4.52 | – |

| Structure (SMILES) | pEC50 [1] | pEC50 |
| --- | --- | --- |
| COc1ccc(C2CC(c3ccc(Cl)cc3)=NN2c2ccccc2)cc1OC (stereo not drawn) [UNM-0000305858] | 4.52 | – |
| FC(F)(F)c1cccc(N2N=C(c3ccc(Cl)cc3)CC2c2ccccc2Cl)c1 (stereo not drawn) [UNM-0000305859] | 4.52 | – |
| COc1ccc(C2=NN(c3ccccc3F)C(c3ccc(F)cc3)C2)cc1 (stereo not drawn) [UNM-0000305860] | 4.52 | – |
| COc1ccc(C2=NN(c3ccc(Cl)cc3)C(c3ccccc3F)C2)cc1 (stereo not drawn) [UNM-0000305863] | 4.52 | – |
| COc1ccc(C2CC(c3ccc(F)cc3)=NN2c2ccccc2)cc1OC (stereo not drawn) [UNM-0000305864] | 4.52 | – |
| CN(C)c1ccc(C2CC(c3ccc(F)cc3)=NN2c2ccccc2)cc1 (stereo not drawn) [UNM-0000305866] | 4.52 | – |
| COc1ccc(C2CC(c3ccccc3)=NN2c2ccc(C(N)=O)cc2)cc1 (stereo not drawn) [UNM-0000305870] | 4.52 | – |
| COc1ccc(C2CC(c3ccccc3)=NN2c2ccc(C(=O)O)cc2)cc1 (stereo not drawn) [UNM-0000306085] | 4.52 | – |
| COc1ccc(C2CC(c3ccccc3F)=NN2c2ccc(S(N)(=O)=O)cc2)cc1 (stereo not drawn) [UNM-0000306110] | – | 5.56 |
| COc1ccc(C2CC(c3ccccc3Br)=NN2c2ccc(S(N)(=O)=O)cc2)cc1 (stereo not drawn) [UNM-0000306112] | – | 5.47 |
| COc1ccc(C2CC(c3cccc(Br)c3)=NN2c2ccc(S(N)(=O)=O)cc2)cc1 (stereo not drawn) [UNM-0000306113] | – | 5.69 |
| COc1ccc(C2CC(c3cccc(Cl)c3)=NN2c2ccc(S(N)(=O)=O)cc2)cc1 (stereo not drawn) [UNM-0000306134] | – | 5.89 |
| COc1ccc(C2CC(c3ccc(Br)cc3)=NN2c2ccc(S(N)(=O)=O)cc2)cc1 (stereo not drawn) [UNM-0000306138] | – | 5.52 |
| COc1ccc(C2CC(c3ccccc3C)=NN2c2ccc(S(N)(=O)=O)cc2)cc1 (stereo not drawn) [UNM-0000306152] | 5.38 | – |
| COc1ccc(C2CC(c3cccc(C)c3)=NN2c2ccc(S(N)(=O)=O)cc2)cc1 (stereo not drawn) [UNM-0000306153] | – | 5.42 |
| NS(=O)(=O)c1ccc(N2N=C(c3ccccc3)CC2c2ccc(Br)cc2)cc1 (stereo not drawn) [UNM-0000306160] | – | 5.97 |

Source: BindingDB's records for doi:10.7270/Q2QJ7FRJ (Nmmlsc, 2009)
